The results in this text go back to US10689354B2, “Aminoazole derivative” (Teijin Pharma Limited, priority 2015, dated 2020).

Each structure is given as a SMILES string.

The test addresses T1, androgen receptor (AR-LBD) (Rattus norvegicus, UniProt P15207).
T1 construct: 5 μL of 2×AR-LBD/Fluoromone AL Red Complex contained in the kit; purchased Invitrogen
T1 sequence (P15207 651-882 limits assumed): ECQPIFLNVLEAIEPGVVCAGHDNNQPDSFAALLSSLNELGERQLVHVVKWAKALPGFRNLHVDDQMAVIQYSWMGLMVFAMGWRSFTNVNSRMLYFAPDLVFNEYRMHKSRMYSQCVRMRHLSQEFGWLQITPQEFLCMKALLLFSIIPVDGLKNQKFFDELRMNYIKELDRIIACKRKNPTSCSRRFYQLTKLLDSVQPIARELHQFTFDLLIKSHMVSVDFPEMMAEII
The test is described as follows: Evaluation of androgen receptor affinity (PolarScreen Androgen Receptor Competitor Assay Kit, Red; fluorescence polarization). To be noted: 22° C. for 5 hours, relative to binding rate of 1 μM DHT, read-out: AR affinity (pEC50) (converted). On the procedure:
Evaluation of an Androgen Receptor Affinity
To examine the interaction of a compound with an androgen receptor, evaluation was carried out in accordance with the following procedure using PolarScreen™ Androgen Receptor Competitor Assay Kit, Red (Invitrogen). To 2 wells each of a 384 well black plate was added 5 μL of the compound solution. To each well was added 5 μL of 2×AR-LBD/Fluoromone AL Red Complex contained in the kit and the samples were reacted at 22° C. for 5 hours. After 5 hours of the reaction, fluorescence polarization was measured and the affinity was evaluated. The affinity of the compound was determined by comparing to the binding rate of 1 μM of dihydrotestosterone (DHT), and quantified the logarithm value (pEC50) of reciprocal value of the effective concentration of the compound which is equal to 50% of the binding rate by applying a 4 parameter goodness-of-fit calculation.
A general note: In fluorescence polarisation assays a small probe gives low polarisation when free and higher when bound to something large.

Regarding `Cc1sc(N(C[C@H]2CCC[C@@H](CO)C2)c2ccc(C#N)cc2)nc1C(=O)NS(C)(=O)=O` (racemic) [Compound 347, 2-[4-cyano-N-[[cis-3-(hydroxymethyl)cyclohexyl]methyl]anilino]-5-methyl-N-methylsulfonyl-thiazole-4-carboxamide], the EC50 is 1260 nM. The result for `Cc1sc(N(C[C@H]2CCC[C@@H](CO)C2)c2ccc(C(F)(F)F)cc2)nc1C(=O)NS(C)(=O)=O` (racemic) [Compound 348, 2-[N-[[cis-3-(hydroxymethyl)cyclohexyl]methyl]-4-(trifluoromethyl)anilino]-5-methyl-N-methylsulfonyl-thiazole-4-carboxamide] reads 1260 nM; that for `CO[C@@H]1CCC[C@H](CN(c2ccc(C#N)cc2)c2nc(C(=O)NS(C)(=O)=O)c(C)s2)C1` (racemic) [Compound 349, 2-[4-cyano-N-[[cis-3-methoxycyclohexyl]methyl]anilino]-5-methyl-N-methylsulfonyl-thiazole-4-carboxamide], 501 nM. As for `Cc1sc(N(C[C@@H]2CCCC[C@H]2O)c2ccc(C#N)cc2)nc1C(=O)NS(C)(=O)=O` (racemic) [Compound 411, 2-[4-cyano-N-[[trans-2-hydroxycyclohexyl]methyl]anilino]-5-methyl-N-methylsulfonyl-thiazole-4-carboxamide], the EC50 is 794 nM. Turning to `Cc1sc(N(CC[C@@H]2CC[C@@H](F)C2)c2ccc(C#N)cc2)nc1C(=O)NS(C)(=O)=O` (racemic) [Compound 453, 2-[4-cyano-N-[2-[trans-3-fluorocyclopentyl]ethyl]anilino]-5-methyl-N-methylsulfonyl-thiazole-4-carboxamide], the EC50 was 251 nM. The value for `Cc1sc(N(CC[C@H]2C[C@H](O)CO2)c2ccc(C#N)cc2)nc1C(=O)NS(C)(=O)=O` (racemic) [Compound 457, 2-[4-cyano-N-[2-[trans-4-hydroxytetrahydrofuran-2-yl]ethyl]anilino]-5-methyl-N-methylsulfonyl-thiazole-4-carboxamide] was more than 2000 nM; that for `Cc1sc(N(CC[C@@H]2CC[C@@H](O)C2)c2ccc(C#N)cc2)nc1C(=O)NS(C)(=O)=O` (racemic) [Compound 459, 2-[4-cyano-N-[2-[trans-3-hydroxycyclopentyl]ethyl]anilino]-5-methyl-N-methylsulfonyl-thiazole-4-carboxamide] was 1260 nM.

As for `Cc1sc(N(Cc2ccccc2C#N)c2ccc(C#N)cc2)nc1C(=O)NS(C)(=O)=O` [Compound 8, 2-[4-cyano-N-[(2-cyanophenyl)methyl]anilino]-5-methyl-N-methylsulfonyl-thiazole-4-carboxamide], the EC50 was more than 2000 nM. The result for `COc1ccc(N(Cc2ccccc2)c2nc(C(=O)NS(C)(=O)=O)c(C)s2)cc1` [Compound 21, 2-(N-benzyl-4-methoxy-anilino)-5-methyl-N-methylsulfonyl-thiazole-4-carboxamide] reads 1580 nM; that for `COCCOc1ccc(N(Cc2ccccc2)c2nc(C(=O)NS(C)(=O)=O)c(C)s2)cc1` [Compound 22, 2-[N-benzyl-4-(2-methoxyethoxy)anilino]-5-methyl-N-methylsulfonyl-thiazole-4-carboxamide], 501 nM; that for `Cc1sc(N(Cc2ccccc2)c2ccccc2OC(F)(F)F)nc1C(=O)NS(C)(=O)=O` [Compound 27, 2-[N-benzyl-2-(trifluoromethoxy)anilino]-5-methyl-N-methylsulfonyl-thiazole-4-carboxamide], more than 2000 nM.

Regarding `Cc1sc(N(Cc2ccccc2)c2ccc(F)cc2)nc1C(=O)NS(C)(=O)=O` [Compound 28, 2-(N-benzyl-4-fluoro-anilino)-5-methyl-N-methylsulfonyl-thiazole-4-carboxamide], the EC50 was 1000 nM. The result for `Cc1sc(N(Cc2ccccc2)c2cccc(F)c2)nc1C(=O)NS(C)(=O)=O` [Compound 29, 2-(N-benzyl-3-fluoro-anilino)-5-methyl-N-methylsulfonyl-thiazole-4-carboxamide] reads more than 2000 nM.
